# Reference: patent publication US8309718B2, “4-pyrazolyl-N-arylpyrimidin-2-amines and 4-pyrazolyl-N-heteroarylpyrimidin-2-amines as janus kinase inhibitors” (Incyte Corporation, priority 2007, dated 2012)
# Target: T1, human JAK2 (Homo sapiens, UniProt O60674)
# T1 construct: JAK2 (a.a. 828-1132); His tag (N); made in house; host or cells: insect cells (baculovirus)
# Assay: In vitro JAK kinase assay (HTRF, phosphorylation of biotinylated peptide)
# Format: biochemical
# Settings: catalytic domain a.a. 828-1132, 30 μM ATP, 500 nM peptide, room temperature 1 hr; read-out: JAK-2 IC50
# Outline: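 IC50 from HTRF detection (Eu-Py20 antibody, SA-APC) of biotinylated-peptide phosphorylation (500 nM), run 1 h at RT. Enzyme: N-His human JAK2 kinase domain a.a. 828-1132 from insect cells; ATP 30 μM; buffer 50 mM Tris pH 7.8 with NaCl, DTT, BSA.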
# T1 sequence (O60674 828-1132): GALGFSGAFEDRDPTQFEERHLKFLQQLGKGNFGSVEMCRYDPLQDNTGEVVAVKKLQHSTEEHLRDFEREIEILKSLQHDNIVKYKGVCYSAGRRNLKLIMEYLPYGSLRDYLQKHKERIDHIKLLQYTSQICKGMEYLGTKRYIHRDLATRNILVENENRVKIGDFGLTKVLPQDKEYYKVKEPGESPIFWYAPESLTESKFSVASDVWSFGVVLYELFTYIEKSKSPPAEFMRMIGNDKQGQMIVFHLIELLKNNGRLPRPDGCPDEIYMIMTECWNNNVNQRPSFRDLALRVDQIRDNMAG
row,SMILES,IC50
1,"COC[C@H]1CCCN1C(=O)c1cccc(Nc2nccc(-c3cnn(C(CC#N)C4CCCC4)c3)n2)c1 (mixture of isomers) [Example 162, 3-cyclopentyl-3-(4-(2-(3-((R)-2-(methoxymethyl)pyrrolidine-1-carbonyl)phenylamino)pyrimidin-4-yl)-1H-pyrazol-1-yl)propanenitrile]",< 100 nM
2,"Cc1nc(-c2ccc(S(=O)(=O)Nc3ccc(Nc4nccc(-c5cnn(C(CC#N)C6CCCC6)c5)n4)cc3)s2)cs1 (racemic) [Example 193, N-(4-(4-(1-(2-cyano-1-cyclopentylethyl)-1H-pyrazol-4-yl)pyrimidin-2-ylamino)phenyl)-5-(2-methylthiazol-4-yl)thiophene-2-sulfonamide]",< 100 nM
3,"CN1CCC(NC(=O)c2cccc(Nc3nccc(-c4cnn(C(CC#N)C5CCCC5)c4)n3)c2)CC1 (racemic) [Example 154, 3-(4-(1-(2-cyano-1-cyclopentylethyl)-1H-pyrazol-4-yl)pyrimidin-2-ylamino)-N-(1-methylpiperidin-4-yl)benzamide]",< 100 nM
4,"Cc1cccc(S(=O)(=O)Nc2ccc(Nc3nccc(-c4cnn(C(CC#N)C5CCCC5)c4)n3)cc2)n1 (racemic) [Example 194, N-(4-(4-(1-(2-cyano-1-cyclopentylethyl)-1H-pyrazol-4-yl)pyrimidin-2-ylamino)phenyl)-6-methylpyridine-2-sulfonamide]",< 100 nM
5,"CCS(=O)(=O)N1CCC(CC(CC#N)n2cc(-c3nc(Nc4ccc(-n5cccn5)cc4)ncc3C)cn2)CC1 (racemic) [Example 49, 3-(4-(2-(4-(1H-pyrazol-1-yl)phenylamino)-5-methylpyrimidin-4-yl)-1H-pyrazol-1-yl)-4-(1-(ethylsulfonyl)piperidin-4-yl)butanenitrile]",< 100 nM
6,"Cc1cnc(Nc2ccc(-c3cnco3)cc2)nc1-c1cnn(C(CC#N)C2CCCC2)c1 (racemic) [Example 74, 3-cyclopentyl-3-(4-(5-methyl-2-(4-(oxazol-5-yl)phenylamino)pyrimidin-4-yl)-1H-pyrazol-1-yl)propanenitrile]",< 100 nM
7,"N#CCC(CC1CCN(C(=O)c2ccc(F)cc2F)CC1)n1cc(-c2ccnc(Nc3ccc(Oc4ccccc4)cc3)n2)cn1 (racemic) [Example 11, 4-(1-(2,4-difluorobenzoyl)piperidin-4-yl)-3-(4-(2-(4-phenoxyphenylamino)pyrimidin-4-yl)-1H-pyrazol-1-yl)butanenitrile]",< 100 nM
8,"CCS(=O)(=O)Nc1cccc(Nc2nccc(-c3cnn(C(CC#N)C4CCCC4)c3)n2)c1 (racemic) [Example 114, N-(3-(4-(1-(2-cyano-1-cyclopentylethyl)-1H-pyrazol-4-yl)pyrimidin-2-ylamino)phenyl)ethanesulfonamide]",< 100 nM
9,"N#CCC(C1CC1)n1cc(-c2ccnc(Nc3ccc(N4CCOCC4)cc3)n2)cn1 (racemic) [Example 177, 3-cyclopropyl-3-(4-(2-(4-morpholinophenylamino)pyrimidin-4-yl)-1H-pyrazol-1-yl)propanenitrile]",< 100 nM
10,"N#CCC(C1CCCC1)n1cc(-c2ccnc(Nc3cccc(NC(=O)CN4CCCC4)c3)n2)cn1 (racemic) [Example 118, N-(3-(4-(1-(2-cyano-1-cyclopentylethyl)-1H-pyrazol-4-yl)pyrimidin-2-ylamino)phenyl)-2-(pyrrolidin-1-yl)acetamide]",< 100 nM

# Continued, values first:
row,IC50,SMILES
1,< 100 nM,"N#CCC(C1CCCC1)n1cc(-c2ccnc(Nc3cccc(NC(=O)CN4CCC(O)CC4)c3)n2)cn1 (racemic) [Example 239, N-(3-(4-(1-(2-cyano-1-cyclopentylethyl)-1H-pyrazol-4-yl)pyrimidin-2-ylamino)phenyl)-2-(4-hydroxypiperidin-1-yl)acetamide]"
2,< 100 nM,"COc1cnc(Nc2cccc([N+](=O)[O-])c2)nc1-c1cnn(C(CC#N)C2CC2)c1 (racemic) [Example 321, 3-cyclopropyl-3-(4-{5-methoxy-2-[(3-nitrophenyl)amino]pyrimidin-4-yl}-1H-pyrazol-1-yl)propanenitrile]"
3,< 100 nM,"CC(=O)N[C@H]1CCN(C(=O)c2ccc(Nc3nccc(-c4cnn(C(CC#N)C5CCCC5)c4)n3)cc2)C1 (stereo partly drawn) [Example 222, N-((3S)-1-(4-(4-(1-(2-cyano-1-cyclopentylethyl)-1H-pyrazol-4-yl)pyrimidin-2-ylamino)benzoyl)pyrrolidin-3-yl)acetamide]"
4,< 100 nM,"COc1cnc(Nc2cccc(C(=O)NCc3cc(C)on3)c2)nc1-c1cnn(C(CC#N)C2CC2)c1 (racemic) [Example 333, 3-({4-[1-(2-cyano-1-cyclopropylethyl)-1H-pyrazol-4-yl]-5-methoxypyrimidin-2-yl}amino)-N-[(5-methylisoxazol-3-yl)methyl]benzamide]"
5,< 100 nM,"CO[C@H]1CCN(C(=O)c2ccc(Nc3nccc(-c4cnn(C(CC#N)C5CC5)c4)n3)cc2)C1 (mixture of isomers) [Example 265, 3-cyclopropyl-3-(4-(2-(4-((S)-3-methoxypyrrolidine-1-carbonyl)phenylamino)pyrimidin-4-yl)-1H-pyrazol-1-yl)propanenitrile]"
6,< 100 nM,"Cn1ccc(S(=O)(=O)Nc2cccc(Nc3nccc(-c4cnn(C(CC#N)C5CCCC5)c4)n3)c2)n1 (racemic) [Example 201, N-(3-(4-(1-(2-cyano-1-cyclopentylethyl)-1H-pyrazol-4-yl)pyrimidin-2-ylamino)phenyl)-1-methyl-1H-pyrazole-3-sulfonamide]"
7,< 100 nM,"COc1cnc(Nc2ccc(C(=O)N3CCOCC3)cc2)nc1-c1cnn(C(CC#N)C2CCCC2)c1 (racemic) [Example 302, 3-cyclopentyl-3-(4-(5-methoxy-2-(4-(morpholine-4-carbonyl)phenylamino)pyrimidin-4-yl)-1H-pyrazol-1-yl)propanenitrile]"
8,< 100 nM,"N#CCC1(n2cc(-c3ccnc(Nc4ccc(C(=O)N5CC[C@H](F)C5)cc4)n3)cn2)CC(C#N)C1 (single isomer, unassigned) [Example 294]"
9,< 100 nM,"CC(=O)N1CCN(C(=O)c2ccc(Nc3nccc(-c4cnn(C(CC#N)C5CCCC5)c4)n3)cc2)CC1 (racemic) [Example 224, 3-(4-(2-(4-(4-acetylpiperazine-1-carbonyl)phenylamino)pyrimidin-4-yl)-1H-pyrazol-1-yl)-3-cyclopentylpropanenitrile]"
10,< 100 nM,"N#CCC(C1CCCC1)n1cc(-c2ccnc(Nc3ccc(C(=O)N4CCC5(CC4)CNC(=O)C5)cc3)n2)cn1 (racemic) [Example 228, 3-cyclopentyl-3-(4-(2-(4-(3-oxo-2,8-diazaspiro[4.5]decane-8-carbonyl)phenylamino)pyrimidin-4-yl)-1H-pyrazol-1-yl)propanenitrile]"
11,< 100 nM,"CO[C@H]1CCN(C(=O)c2ccc(Nc3nccc(-c4cnn(C5(CC#N)CC(C#N)C5)c4)n3)cc2)C1 (single isomer, unassigned) [Example 296]"
